The values below come from patent EP2599815B1, “POLYCARBOXYLIC ACID CONDENSATE, THERMOSETTING RESIN COMPOSITION, SUBSTRATE FOR MOUNTING SEMICONDUCTOR ELEMENT AND PROCESS FOR PRODUCING SAME, AND SEMICONDUCTOR DEVICE” (Hitachi Chemical Co., Ltd., priority 2010, dated 2012).

Data set [1] is described as follows: Solubility in water at 30°C of carboxyl group-containing compounds. To be noted: for solubility: distilled water, 30 °C, water, thermodynamic from solid.

Converted amounts (≈) assume the structure as drawn. Read-outs that look alike come from different tables or passages of the source.

For orientation: solubility means how much of the substance goes into solution per volume. Low readings indicate a poorly soluble substance, high ones a readily soluble substance. On to `O=C(O)C1CCCCC1C(=O)O` (stereo not drawn) [hexahydrophthalic acid], for which the solubility in data set [1] was 1.5 mg/mL (≈ 8.71 mM).
`O=C(O)C1CCC(C(=O)O)C(C(=O)O)C1` (stereo not drawn) [hydrogenated trimellitic acid]: the “solubility in water (30°C)” value in data set [1] (weight of solute per 1 L of distilled water in a saturated aqueous solution at 30°C) turned out to be 300 mg/mL (≈ 1390 mM).
With `O=C(O)/C=C\C(=O)O` [maleic acid], the concentration in solution in data set [1] (solubility) was 800 mg/mL (≈ 6890 mM).
On the same count and under the same terms, the figure for `O=C(O)c1ccccc1C(=O)O` [phthalic acid] is 9 mg/mL (≈ 54.2 mM); for `O=C(O)c1ccc(C(=O)O)c(C(=O)O)c1` [trimellitic acid] it is 20 mg/mL (≈ 95.2 mM).
Consider tetrahydrophthalic acid, for which the “solubility in water (30°C)” value is 5 mg/mL.
